Test: Solubilizing effect of surfactants for perfume oil in water (10% by weight aqueous surfactant solution, perfume oil quantity before clouding)
Format: physicochemical
Details: 10% by weight aqueous solution of surfactant, higher = better solubilizing effect
Procedure: 1. In order to test the effect according to the invention, a 10% by weight aqueous solution of various surfactants was prepared. To this end, the surfactant was first mixed with the perfume oil and water was then added. The higher the percentage content of perfume oil, the better the solubilizing effect of the surfactant. In Table 1 below, V stands for known products and E for alkoxylated esters according to the invention.
Examples E1 and E2 according to the invention use a citric acid ester as described in 1.1 or 1.2.

## 2-Hydroxy-C12-(PO)1-(EO)9-glycol ether [Example V1a]
Perfume oil: Lemon oil terpene
  Quantity (% by wt.) before clouding: 4 % by wt.
Perfume oil: Octyl aldehyde
  Quantity (% by wt.) before clouding: 2 % by wt.
Perfume oil: Orange oil
  Quantity (% by wt.) before clouding: 4 % by wt.

From US20060128577A1, “Use of alkoxylated hydroxycarboxylic acid esters for solubilizing perfume oils in water” (priority 2004, published 2006)
